US8012974B2, “Pyrrolopyrazinyl urea kinase inhibitors” (Roche Palo Alto LLC, priority 2008, dated 2011)

Biological target: T1, JAK3: Recombinant human kinase domain (810-1124) (Homo sapiens, UniProt P52333)
T1 construct: JAK3: Recombinant human kinase domain (810-1124); made in house
Assay: Determination of IC50 of Janus Kinase (JAK) inhibition, JAK3, radioactive end-point assay with 33P-ATP
Type: biochemical
Settings: no additive; 0.1 nM JAK3, ATP 1.5 uM, peptide 50 uM, 20 minutes; read-out: Ic50 h-jak3-sf21-c: no additive
Source text: Determination of IC50 of Janus Kinase (JAK) Inhibition:
Enzymes and peptide substrate used are described below: • JAK1: Recombinant human kinase domain (866-1154) from Invitrogen (Cat # PV4774) • JAK3: Recombinant human kinase domain (810-1124) made in house by Roche Palo Alto • JAK2: Recombinant human kinase domain (808-1132) from Millipore (Cat # 14-640) • Substrate: N-terminally biotinylated 14-mer peptide derived from activation loop of JAK1 with sequence of the peptide substrate: Biotin-[sequence]
Assay conditions used are described below: • Assay Buffer: JAK Kinase Buffer: 50 mM Hepes [pH 7.2], 10 mM MgCl2, 1 mM DTT, 1 mg/ml BSA. The assay is carried out in this buffer. • Assay Format The kinase activity of all three JAK kinases is measured using a radioactive, end-point assay and with trace amounts of ^33P-ATP. The assays are carried out in 96-well polypropylene plates. Experimental Method:
All concentrations are final in the reaction mixture and all incubations are carried at room temperature. […] 1 wash with water. • 6) Washed plates are dried in a 60° C. oven for between 1 to 2 hours. • 7) 70 ul of Microscint 20 scintillation fluid is added to each well of filter plates and after at least 30 minutes of incubation, radioactive counts are measured in a Perkinelmer microplate scintillation counter.

T1 sequence (P52333 810-1124): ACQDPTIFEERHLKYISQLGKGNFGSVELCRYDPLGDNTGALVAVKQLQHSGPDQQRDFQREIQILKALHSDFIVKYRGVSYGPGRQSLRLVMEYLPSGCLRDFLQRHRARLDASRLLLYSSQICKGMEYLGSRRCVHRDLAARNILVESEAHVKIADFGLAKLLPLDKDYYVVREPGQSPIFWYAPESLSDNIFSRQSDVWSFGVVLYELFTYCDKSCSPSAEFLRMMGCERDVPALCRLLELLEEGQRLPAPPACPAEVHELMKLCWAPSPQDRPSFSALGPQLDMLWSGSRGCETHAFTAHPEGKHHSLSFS

Row | IC50 [nM] | Structure (SMILES)
1 | 326 | O=C(NCC1CCCCC1)Nc1cnc2[nH]ccc2n1 [Compound I-6, 1-Cyclohexylmethyl-3-(5H-pyrrolo[2,3-b]pyrazin-2-yl)-urea]
2 | 144 | O=C(NCCc1ccccc1)Nc1cnc2[nH]ccc2n1 [Compound I-10, 1-Phenethyl-3-(5H-pyrrolo[2,3-b]pyrazin-2-yl)-urea]
